This passage reports inhibition of growth results from ChEMBL document CHEMBL3046900, “Synthesis and Fungitoxic Activity of N-Cinnamoyl--Amino Acid Esters” (2000).

What all share (format): functional
In assay [1] the test system is Athelia rolfsii. Description: Fungitoxic activity against Athelia rolfsii assessed as mycelial growth inhibition at 100 ppm after 3 days. The conditions noted are these: Agroathelia rolfsii, 72 h; read-out: GI.
Assay [2] deals with Pythium. As to the kind of experiment: Fungitoxic activity against Pythium sp. assessed as mycelial growth inhibition at 100 ppm after 3 days. The conditions noted are these: 72 h, read-out: GI.
Assay [3] deals with Pythium. As to the kind of experiment: Fungitoxic activity against Pythium sp. assessed as mycelial growth inhibition at 10 ppm after 3 days. The conditions noted are these: 72 h, read-out: GI.
Assay [4] has as its system Athelia rolfsii. As to the kind of experiment: Fungitoxic activity against Athelia rolfsii assessed as mycelial growth inhibition at 10 ppm after 3 days. The conditions noted are these: Agroathelia rolfsii, 72 h; read-out: GI.

For the molecule `CCOC(=O)[C@@H](NC(=O)/C=C/c1ccccc1)C(C)C`, the inhibition of growth at 100 ppm in the assay with Athelia rolfsii [1] and with Pythium [2] was 41% each time.

Regarding `CCOC(=O)[C@H](C)NC(=O)/C=C/c1ccc(Cl)cc1`, the figures for the inhibition of growth at 100 ppm in the assay with Athelia rolfsii [1] and in the assay on Pythium [2] were 47% and 27%, respectively.

Take `CCCOC(=O)[C@H](C)NC(=O)/C=C/c1ccc(C(C)C)cc1`: the values for the inhibition of growth at 10 ppm with Pythium [3] and in the assay with Athelia rolfsii [4] were 4% and 20%, respectively. The inhibition of growth at 100 ppm was found to be 53% in the assay with Athelia rolfsii [1] and 52% in the assay with Pythium [2].

As to `CCCOC(=O)CNC(=O)/C=C/c1ccccc1` [PROPYL 2-CINNAMAMIDOACETATE], in the assay on Athelia rolfsii [4], the inhibition of growth at 10 ppm came to 26%. For the same molecule, the results for the inhibition of growth at 100 ppm in the assay with Athelia rolfsii [1] and with Pythium [2] were 53% and 47%, respectively.

For `COC(=O)[C@H](CC(C)C)NC(=O)/C=C/c1ccc(Cl)cc1`, the inhibition of growth at 100 ppm in the assay on Athelia rolfsii [1] amounted to 50%; with Pythium [2], 32%.

Take `CCOC(=O)[C@@H](NC(=O)/C=C/c1ccccc1)[C@@H](C)CC`: the inhibition of growth at 100 ppm was found to be 30% with Athelia rolfsii [1] and 49% in the assay with Pythium [2].

In the case of `CCCOC(=O)[C@H](CC(C)C)NC(=O)/C=C/c1ccc(Cl)cc1`, the inhibition of growth at 10 ppm in the assay on Athelia rolfsii [4] came out at 25%. For the same molecule, the results for the inhibition of growth at 100 ppm with Athelia rolfsii [1] and in the assay with Pythium [2] were 56% and 38%, respectively.

Take `CCOC(=O)[C@H](Cc1ccccc1)NC(=O)/C=C/c1ccc(C(C)C)cc1`: the inhibition of growth at 100 ppm in the assay on Athelia rolfsii [1] worked out at 18%; in the assay with Pythium [2], 20%.

On to `CC(C)C[C@H](NC(=O)/C=C/c1ccc(Cl)cc1Cl)C(=O)OC(C)C`, for which the results for the inhibition of growth at 100 ppm with Athelia rolfsii [1] and with Pythium [2] were 39% and 42%, respectively.

Take `CCCOC(=O)[C@H](CC(C)C)NC(=O)/C=C/c1ccccc1`: the inhibition of growth at 100 ppm in the assay with Athelia rolfsii [1] was found to be 45%; in the assay on Pythium [2] it was 31%.

In the case of `COC(=O)[C@H](Cc1ccccc1)NC(=O)/C=C/c1ccccc1`, the inhibition of growth at 100 ppm in the assay on Athelia rolfsii [1] is 49%; in the assay on Pythium [2], 37%.

With `CCOC(=O)[C@@H](NC(=O)/C=C/c1ccc(Cl)cc1)[C@@H](C)CC`, the inhibition of growth at 10 ppm came out at 0% in the assay with Pythium [3] and 42% with Athelia rolfsii [4]. In addition, the inhibition of growth at 100 ppm with Athelia rolfsii [1] is 50%; with Pythium [2], 58%.

In the case of `CC(C)C[C@H](NC(=O)/C=C/c1ccccc1)C(=O)OC(C)C`, the inhibition of growth at 100 ppm in the assay on Athelia rolfsii [1] was found to be 41%; in the assay on Pythium [2] it was 34%.

As to `CC(C)OC(=O)CNC(=O)/C=C/c1ccc(Cl)cc1Cl`, the inhibition of growth at 10 ppm in the assay on Pythium [3] came out at 9%; in the assay with Athelia rolfsii [4], 38%. The inhibition of growth at 100 ppm in the assay on Athelia rolfsii [1] amounted to 94%; with Pythium [2], 70%.

As to `CCOC(=O)[C@H](Cc1ccccc1)NC(=O)/C=C/c1ccccc1`, the inhibition of growth at 10 ppm in the assay with Athelia rolfsii [4] is 27%. Also, the inhibition of growth at 100 ppm is 62% with Athelia rolfsii [1] and 26% with Pythium [2].

As to `CCOC(=O)[C@H](CC(C)C)NC(=O)/C=C/c1ccccc1`, the inhibition of growth at 100 ppm in the assay with Athelia rolfsii [1] amounted to 40%; in the assay on Pythium [2], 16%.

With `CCCOC(=O)CNC(=O)/C=C/c1ccc(Cl)cc1`, the inhibition of growth at 10 ppm in the assay with Athelia rolfsii [4] turned out to be 35%. Also, the inhibition of growth at 100 ppm in the assay with Athelia rolfsii [1] turned out to be 56%; in the assay with Pythium [2], 48%.

As for `CC(C)C[C@H](NC(=O)/C=C/c1ccc(C(C)C)cc1)C(=O)OC(C)C`, the inhibition of growth at 10 ppm was determined as 25% in the assay with Pythium [3] and 35% with Athelia rolfsii [4]. For the same molecule, the inhibition of growth at 100 ppm in the assay with Athelia rolfsii [1] came out at 56%; in the assay with Pythium [2] it was 53%.

As for `CCOC(=O)[C@H](C)NC(=O)/C=C/c1ccc(C(C)C)cc1`, the inhibition of growth at 10 ppm was found to be 0% with Pythium [3] and 27% in the assay with Athelia rolfsii [4]. The values for the inhibition of growth at 100 ppm in the assay with Athelia rolfsii [1] and in the assay with Pythium [2] were 60% and 63%, respectively.

As to `CC[C@H](C)[C@H](NC(=O)/C=C/c1ccc(Cl)cc1Cl)C(=O)OC`, the inhibition of growth at 10 ppm with Pythium [3] was 18%. Further, the values for the inhibition of growth at 100 ppm in the assay on Athelia rolfsii [1] and in the assay on Pythium [2] were 48% and 59%, respectively.

For the molecule `CCOC(=O)[C@@H](NC(=O)/C=C/c1ccc(Cl)cc1Cl)[C@@H](C)CC`, the inhibition of growth at 10 ppm with Pythium [3] was 20%. For the same molecule, the figures for the inhibition of growth at 100 ppm in the assay with Athelia rolfsii [1] and with Pythium [2] were 47% and 52%, respectively.

For `COC(=O)[C@H](CC(C)C)NC(=O)/C=C/c1ccc(Cl)cc1Cl`, the inhibition of growth at 10 ppm in the assay with Pythium [3] amounted to 12%. The inhibition of growth at 100 ppm in the assay with Athelia rolfsii [1] stood at 42%; with Pythium [2], 55%.

`COC(=O)[C@@H](NC(=O)/C=C/c1ccc(Cl)cc1)C(C)C`: the inhibition of growth at 10 ppm was 0% in the assay with Pythium [3] and 20% in the assay with Athelia rolfsii [4]. For the same molecule, the figures for the inhibition of growth at 100 ppm with Athelia rolfsii [1] and with Pythium [2] were 53% and 52%, respectively.

In the case of `COC(=O)[C@H](C)NC(=O)/C=C/c1ccc(Cl)cc1Cl`, the values for the inhibition of growth at 100 ppm with Athelia rolfsii [1] and in the assay with Pythium [2] were 49% and 55%, respectively.

Take `CCCOC(=O)[C@H](C)NC(=O)/C=C/c1ccc(Cl)cc1`: the inhibition of growth at 100 ppm with Athelia rolfsii [1] stood at 38%; in the assay on Pythium [2], 21%.

Consider `COC(=O)[C@@H](NC(=O)/C=C/c1ccc(C(C)C)cc1)C(C)C`, for which the inhibition of growth at 10 ppm was 14% in the assay with Pythium [3] and 23% with Athelia rolfsii [4]. Besides, the inhibition of growth at 100 ppm worked out at 63% in the assay on Athelia rolfsii [1] and 74% with Pythium [2].

As to `CCOC(=O)[C@H](CC(C)C)NC(=O)/C=C/c1ccc(C(C)C)cc1`, the inhibition of growth at 100 ppm with Athelia rolfsii [1] was determined as 43%; with Pythium [2], 44%.

For `COC(=O)[C@H](C)NC(=O)/C=C/c1ccc(C(C)C)cc1`, the inhibition of growth at 100 ppm with Athelia rolfsii [1] stood at 67%; with Pythium [2] it was 52%.

With `CCCOC(=O)[C@H](CC(C)C)NC(=O)/C=C/c1ccc(C(C)C)cc1`, the inhibition of growth at 100 ppm in the assay with Athelia rolfsii [1] came out at 46%; in the assay with Pythium [2] it was 43%.

As to `CCOC(=O)[C@@H](NC(=O)/C=C/c1ccc(Cl)cc1Cl)C(C)C`, the inhibition of growth at 10 ppm in the assay on Pythium [3] turned out to be 19%. The inhibition of growth at 100 ppm with Athelia rolfsii [1] is 47%; in the assay on Pythium [2], 68%.

Turning to `CCCOC/C(=N\c1ccc(Cl)cc1C(F)(F)F)n1ccnc1` [TRIFLUMIZOLE], the values for the inhibition of growth at 10 ppm in the assay with Pythium [3] and in the assay on Athelia rolfsii [4] were 71% and 64%, respectively. Besides, the inhibition of growth at 100 ppm came to 100% in the assay on Athelia rolfsii [1] and 94% with Pythium [2].

Take `CCOC(=O)[C@H](C)NC(=O)/C=C/c1ccc(Cl)cc1Cl`: the values for the inhibition of growth at 10 ppm in the assay on Pythium [3] and in the assay with Athelia rolfsii [4] were 0% and 12%, respectively. The inhibition of growth at 100 ppm in the assay with Athelia rolfsii [1] stood at 52%; in the assay with Pythium [2], 55%.

For the molecule `CCCOC(=O)[C@H](C)NC(=O)/C=C/c1ccccc1`, the inhibition of growth at 100 ppm in the assay on Athelia rolfsii [1] amounted to 48%; in the assay on Pythium [2], 33%.

For `CC[C@H](C)[C@H](NC(=O)/C=C/c1ccccc1)C(=O)OC`, the inhibition of growth at 100 ppm in the assay on Athelia rolfsii [1] was 33%; in the assay with Pythium [2], 39%.

As to `CC(C)OC(=O)CNC(=O)/C=C/c1ccc(Cl)cc1`, the inhibition of growth at 10 ppm with Pythium [3] was 0%; in the assay with Athelia rolfsii [4], 41%. Besides, the inhibition of growth at 100 ppm with Athelia rolfsii [1] stood at 50%; with Pythium [2], 57%.

For the molecule `COC(=O)[C@H](CC(C)C)NC(=O)/C=C/c1ccc(C(C)C)cc1`, the inhibition of growth at 10 ppm in the assay on Pythium [3] came to 6%. Also, the inhibition of growth at 100 ppm in the assay with Athelia rolfsii [1] was 35%; in the assay with Pythium [2], 60%.

`CCOC(=O)[C@H](CC(C)C)NC(=O)/C=C/c1ccc(Cl)cc1Cl`: the values for the inhibition of growth at 100 ppm in the assay with Athelia rolfsii [1] and in the assay with Pythium [2] were 34% and 30%, respectively.

Regarding `COC(=O)[C@H](CC(C)C)NC(=O)/C=C/c1ccccc1`, the figures for the inhibition of growth at 100 ppm in the assay on Athelia rolfsii [1] and in the assay on Pythium [2] were 30% and 23%, respectively.

With `COC(=O)[C@H](Cc1ccccc1)NC(=O)/C=C/c1ccc(Cl)cc1Cl`, the inhibition of growth at 100 ppm with Athelia rolfsii [1] stood at 46%; in the assay with Pythium [2], 38%.

In the case of `CCOC(=O)[C@@H](NC(=O)/C=C/c1ccc(Cl)cc1)C(C)C`, the inhibition of growth at 100 ppm in the assay with Athelia rolfsii [1] turned out to be 47%; with Pythium [2], 54%.

In the case of `COC(=O)[C@H](Cc1ccccc1)NC(=O)/C=C/c1ccc(Cl)cc1`, the values for the inhibition of growth at 100 ppm in the assay with Athelia rolfsii [1] and in the assay on Pythium [2] were 47% and 13%, respectively.

For the molecule `COC(=O)[C@H](C)NC(=O)/C=C/c1ccc(Cl)cc1`, the inhibition of growth at 100 ppm in the assay on Athelia rolfsii [1] turned out to be 44%; in the assay on Pythium [2] it was 26%.

In the case of `CC(C)OC(=O)CNC(=O)/C=C/c1ccccc1` [ISOPROPYL 2-CINNAMAMIDOACETATE], in the assay with Athelia rolfsii [4], the inhibition of growth at 10 ppm came out at 15%. The inhibition of growth at 100 ppm in the assay with Athelia rolfsii [1] stood at 61%; in the assay with Pythium [2] it was 42%.

Consider `CCOC(=O)[C@@H](NC(=O)/C=C/c1ccc(C(C)C)cc1)[C@@H](C)CC`, for which the inhibition of growth at 10 ppm with Pythium [3] stood at 23%. In addition, the results for the inhibition of growth at 100 ppm in the assay with Athelia rolfsii [1] and in the assay with Pythium [2] were 45% and 57%, respectively.

On to `CCCOC(=O)[C@H](CC(C)C)NC(=O)/C=C/c1ccc(Cl)cc1Cl`, for which the inhibition of growth at 100 ppm came out at 33% in the assay on Athelia rolfsii [1] and 38% in the assay with Pythium [2].

As to `CCOC(=O)[C@H](Cc1ccccc1)NC(=O)/C=C/c1ccc(Cl)cc1`, the inhibition of growth at 100 ppm in the assay with Athelia rolfsii [1] came to 22%; in the assay on Pythium [2] it was 15%.

Regarding `CCOC(=O)[C@H](Cc1ccccc1)NC(=O)/C=C/c1ccc(Cl)cc1Cl`, the inhibition of growth at 100 ppm was 35% with Athelia rolfsii [1] and 18% with Pythium [2].

As for `COC(=O)[C@H](C)NC(=O)/C=C/c1ccccc1`, the values for the inhibition of growth at 100 ppm in the assay on Athelia rolfsii [1] and with Pythium [2] were 25% and 13%, respectively.

With `COC(=O)[C@@H](NC(=O)/C=C/c1ccccc1)C(C)C`, the inhibition of growth at 100 ppm in the assay on Athelia rolfsii [1] worked out at 29%; with Pythium [2], 33%.

Turning to `CCOC(=O)[C@H](CC(C)C)NC(=O)/C=C/c1ccc(Cl)cc1`, in the assay on Athelia rolfsii [4], the inhibition of growth at 10 ppm amounted to 16%. Besides, the inhibition of growth at 100 ppm was determined as 53% in the assay with Athelia rolfsii [1] and 22% in the assay with Pythium [2].

Turning to `CCOC(=O)[C@H](C)NC(=O)/C=C/c1ccccc1`, the inhibition of growth at 100 ppm in the assay on Athelia rolfsii [1] came out at 14%; with Pythium [2] it was 21%.

In the case of `CCCOC(=O)CNC(=O)/C=C/c1ccc(Cl)cc1Cl`, the inhibition of growth at 100 ppm in the assay on Athelia rolfsii [1] stood at 28%; in the assay on Pythium [2], 40%.
